In data set [1] the target is Mitogen-activated protein kinase; ERK1/ERK2 (Homo sapiens, UniProt P27361+P28482). The data set can be described thus: Inhibition of ERK1/2 phosphorylation in human PANC-1 cells incubated for 3 hrs. It counts as cell-based.
Data set [2] can be described thus: Drug absorption in Balb/c mouse assessed as fraction of drug absorbed into portal vein at 1 mg/kg, […] measured for 24 hrs by UPLC-MS/MS analysis. It counts as ADME, organism-based. The following applies: in vivo.
Data set [3] can be described thus: Oral bioavailability in Balb/c mouse at 30 mg/kg measured for 24 hrs by UPLC-MS/MS analysis. It counts as ADME, organism-based. The following applies: in vivo.

As for `Oc1cc(-c2nc3c4c(nc(OC[C@@]56CCCN5C[C@H](F)C6)nc4c2F)N2C[C@H]4CC[C@H](N4)[C@H]2CO3)c2c(Cl)cccc2c1`, the IC50 (usually the concentration that inhibits the measured activity by half) in data set [1] was found to be 5 nM.
On the same count and under the same terms, under `Oc1cc(-c2nc3c4c(nc(OC[C@@]56CCCN5C[C@H](F)C6)nc4c2F)N2CC4CCC(N4)C2CO3)c2c(Cl)cccc2c1` (some centres undefined) stands 33 nM; under `Oc1cc(Cl)c(C2CC2)c(-c2nc3c4c(nc(OC[C@@]56CCCN5C[C@H](F)C6)nc4c2F)N2CC4CCC(N4)C2CO3)c1` (some centres undefined), 7 nM.
In data set [1], `C#Cc1c(F)ccc2cc(O)cc(-c3ncc4c(N5C[C@H]6CC[C@@H](C5)N6)nc(OC[C@@]56CCCN5C[C@H](F)C6)nc4c3F)c12` [MRTX-1133] came in with a concentration for half-maximal inhibition (IC50) of 2.3 nM. Moreover, the FaFg in data set [2] is on record as 0.95%. In data set [3], the bioavailability – broadly, dose-corrected exposure relative to a reference, in per cent – was found to be 0.66%.
In data set [1], `C#Cc1c(F)ccc2cccc(-c3nc4c5c(nc(OC[C@@]67CCCN6C[C@H](F)C7)nc5c3F)N3CC5CCC(N5)C3CO4)c12` (some centres undefined) registered a half-inhibitory concentration (IC50) of 9 nM.
For `C#Cc1c(F)ccc2cccc(-c3nc4c5c(nc(OC[C@@]67CCCN6C[C@H](F)C7)nc5c3F)N3C[C@H]5CC[C@H](N5)[C@H]3CO4)c12`, in data set [1], the half-inhibitory concentration (IC50) worked out at 2 nM. Also, in data set [2], the FaFg came to 54%. For the same molecule, in data set [3], the bioavailability worked out at 37.7%.
In the same order, the values of `C#Cc1cccc2cccc(-c3nc4c5c(nc(OC[C@@]67CCCN6C[C@H](F)C7)nc5c3F)N3C[C@H]5CC[C@H](N5)[C@H]3CO4)c12` are 10 nM, 56.6% and 39.2%.
Molecule `CCc1c(F)ccc2cc(O)cc(-c3nc4c5c(nc(OC[C@@]67CCCN6C[C@H](F)C7)nc5c3F)N3C[C@H]5CC[C@H](N5)[C@H]3CO4)c12` registered a half-inhibitory concentration (IC50) in data set [1] of 0.76 nM.

Values taken from ChEMBL document CHEMBL5360671, “Targeting KRASG12D Mutations: Discovery of Small Molecule Inhibitors for the Potential Treatment of Intractable Cancers” (ACS Med Chem Lett, 2023).
